Tests used:
Type in all cases: biochemical
Xa (factor X activated) = Xa (factor X activated) (Homo sapiens, UniProt P00742); assay: Score assay, Xa (chromogenic substrate S-2765); design: key: score = fold increase in inhibitor conc / inhibitor conc used (mM); settings: Table 3, substrate 22 μM
From the text: (§1) Score gives a facile measure of the effectiveness of an inhibitor requiring only one or two data points, rather than the twelve or more data points required to calculate an IC50.
(§2) The principle behind calculating the score is that, although the absolute values obtained from inhibitors of the same type may be different, the shape and range of the IC50 curves are quite similar.
(§3) Molecular Devices Corp. Thermomax plate reader.
S-2765 (N-α-Z-D-ArgGly-Arg-pNa for Xa) was obtained from Quadratech.
(§4) Buffer for Thr, Try, Pla, UK or Xa assay: 0.1M sodium phosphate; 0.2M sodium chloride; 0.5% PEG6000; 0.02% sodium azide, pH 7.4.
(§5) Final Substrates Concentrations were 25 μM, 113 μM, 22 μM and 125 μM for Try, Pla, Xa and UK Respectively.
(§6) The data from IC50 curves for 13 compounds were used to construct an average IC50 curve.
(§7) The average values for the fold increase at each 10% step are shown below:
(§8) Measurement of single concentrations of inhibitor on a plate reader (using MDC ‘Softmax’ software) gave a value from 9 to 0 when compared to a control without inhibitor which corresponds to the % inhibition a shown in Table 1. Provided that the plate reader number was >2 but <8 (linear part of the graph) the score could then be calculated as follows.
(§9) Score=fold increase in inhibitor concentration (see table 1)/concentration of inhibitor used (in mM)

UK (urokinase) = UK (urokinase) (Homo sapiens, UniProt P00749); assay: Score assay, UK (chromogenic substrate S-2444); design: key: score = fold increase in inhibitor conc / inhibitor conc used (mM); settings: Table 3, substrate 125 μM
From the text: as §1, §2, §3
S-2444 (pyro-Glu-Gly-Arg-pNa for UK) was obtained from Quadratech.
as §4, §5, §6, §7, §8, §9

Try (trypsin) = Try (trypsin) (Homo sapiens, UniProt P07477); assay: Score assay, Try (chromogenic substrate S-2288); design: key: score = fold increase in inhibitor conc / inhibitor conc used (mM); settings: Table 3, substrate 25 μM
From the text: as §1, §2, §3
S-2288 (H-D-Ileu-Pro-Arg-pNa for Try) was obtained from Quadratech.
as §4, §5, §6, §7, §8, §9

FIXa = target: T1, FIXa (Homo sapiens, UniProt P00740); assay: Score assay, FIXa (chromogenic substrate Pefachrome IXa); design: key: fold increase in inhibitor conc / inhibitor conc used (mM); settings: Score = fold increase in inhibitor concentration / concentration of inhibitor used (in mM), 37° C., pH 7.4
T1 construct: FIXa was obtained from Haematologics; purchased Haematologics
Description: as §1, §2, §3
Pefachrome IXa (Kordia, for FIXa)
(§10) Buffer for FIXa assay: 50 mM Tris; 100 mM sodium chloride; 0.5% PEG 6000, pH 7.4. The aqueous buffer was freshly mixed each day with ethylene glycol (65%:35% respectively) Human α-thrombin was obtained from J. Freysinnet (Strasbourg).
FIXa was obtained from Haematologics.
FIXa (50 μl of a stock at 0.01 mg/ml) is added.
as §6, §7, §8, §9

Human α-thrombin = target: T2, Human α-thrombin (Homo sapiens, UniProt P00734); assay: Score assay, Thr (chromogenic substrate S-2238); settings: Score = fold increase in inhibitor concentration / concentration of inhibitor used (in mM), 37° C., pH 7.4
T2 construct: Human α-thrombin was obtained from J. Freysinnet (Strasbourg); purchased J. Freysinnet (Strasbourg)
From the text: as §1, §2, §3
S-2238 (H-D-Phe-Pip-Arg-pNA, for Thr) was obtained from Quadratech.
as §4, §10
Inhibitor (100 μl of dilution in buffer of 1/20 or higher as appropriate from stock in DMSO) is added to substrate (50 μl of a dilution of 1/100 of 2.4 mg/ml stock) for 2 minutes at 37° C. Thr (50 μl of a dilution of {fraction (1/10,000)} of stock at 1 mg/ml) is added.
as §6, §7, §8, §9

Pla (plasmin) = Pla (plasmin) (Homo sapiens, UniProt P00747); assay: Score assay, Pla (chromogenic substrate S-2251); settings: Table 3, substrate 113 μM
From the text: as §1, §2, §3
S-2251 (H-D-Val-Leu-Lys-pNa for Pla) was obtained from Quadratech.
as §4, §5, §6, §7, §8, §9

[1] = Table 1 comparators, single concentration, higher = more effective
[2] = Table 1 comparators, single concentration

Chain of Xa (factor X activated) (P00742 235-488 limits assumed): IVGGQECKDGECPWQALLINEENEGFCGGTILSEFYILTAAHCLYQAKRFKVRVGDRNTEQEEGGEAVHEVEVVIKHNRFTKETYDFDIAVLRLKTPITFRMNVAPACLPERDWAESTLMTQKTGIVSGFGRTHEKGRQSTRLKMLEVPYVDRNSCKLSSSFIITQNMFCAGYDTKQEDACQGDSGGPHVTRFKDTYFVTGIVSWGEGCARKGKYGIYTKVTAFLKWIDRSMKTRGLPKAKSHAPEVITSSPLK
Chain of Xa (factor X activated) (P00742 41-179 partner limits assumed): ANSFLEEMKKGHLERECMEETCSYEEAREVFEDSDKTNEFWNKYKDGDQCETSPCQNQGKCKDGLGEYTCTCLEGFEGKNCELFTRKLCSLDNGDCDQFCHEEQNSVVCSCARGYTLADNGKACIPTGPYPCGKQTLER
T1 sequence (P00740 227-461 limits assumed): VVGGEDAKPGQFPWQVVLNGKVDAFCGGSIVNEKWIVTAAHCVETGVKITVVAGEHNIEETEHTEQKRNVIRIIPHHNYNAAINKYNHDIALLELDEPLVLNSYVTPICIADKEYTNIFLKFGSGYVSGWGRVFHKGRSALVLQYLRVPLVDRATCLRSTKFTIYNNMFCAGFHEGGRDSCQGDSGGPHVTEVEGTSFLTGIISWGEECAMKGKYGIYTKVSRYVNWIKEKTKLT
T1 sequence (P00740 47-191 partner limits assumed): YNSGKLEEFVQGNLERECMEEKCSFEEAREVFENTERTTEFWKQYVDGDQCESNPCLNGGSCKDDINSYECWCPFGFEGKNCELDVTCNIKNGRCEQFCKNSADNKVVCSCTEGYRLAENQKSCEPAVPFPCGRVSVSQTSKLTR
Chain of Pla (plasmin) (P00747 581-810 limits assumed, species assumed): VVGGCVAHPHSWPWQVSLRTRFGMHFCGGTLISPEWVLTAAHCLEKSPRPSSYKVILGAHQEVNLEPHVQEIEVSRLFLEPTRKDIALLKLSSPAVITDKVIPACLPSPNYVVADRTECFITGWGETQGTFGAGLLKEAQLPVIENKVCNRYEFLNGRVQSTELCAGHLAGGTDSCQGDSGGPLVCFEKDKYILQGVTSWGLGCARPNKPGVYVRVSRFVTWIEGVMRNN
Chain of Pla (plasmin) (P00747 97-580 partner limits assumed, species assumed): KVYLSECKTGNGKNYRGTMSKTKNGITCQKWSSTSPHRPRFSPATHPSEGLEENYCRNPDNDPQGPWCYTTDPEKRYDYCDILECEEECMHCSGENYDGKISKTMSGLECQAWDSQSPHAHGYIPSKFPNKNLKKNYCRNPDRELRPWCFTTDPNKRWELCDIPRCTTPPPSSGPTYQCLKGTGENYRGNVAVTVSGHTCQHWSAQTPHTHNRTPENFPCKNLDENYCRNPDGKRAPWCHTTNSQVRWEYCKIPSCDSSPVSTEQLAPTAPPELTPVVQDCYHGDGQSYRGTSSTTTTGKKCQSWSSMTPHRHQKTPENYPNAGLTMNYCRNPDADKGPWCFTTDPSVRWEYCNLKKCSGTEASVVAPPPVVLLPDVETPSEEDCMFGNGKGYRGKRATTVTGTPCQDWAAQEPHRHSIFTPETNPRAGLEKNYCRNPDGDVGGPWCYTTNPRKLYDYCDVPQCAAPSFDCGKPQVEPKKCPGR

Structure (SMILES)	Xa (score) (Xa (factor X activated))	UK (score) (UK (urokinase))	Try (score) (Try (trypsin))	FIXa score (FIXa; Table 3)	Thr Score (Human α-thrombin; Table 3)	Pla (score) (Pla (plasmin))	FIXa score (FIXa; [1])	Thr Score (Human α-thrombin; [2])
CC1(C)OB(c2ccccc2CSC(=N)N)OC1(C)C [compound 832]	7	26	7	7	70	1		
CC1(C)OB(c2cccc(CSC(=N)N)c2)OC1(C)C [compound 852]	624	792	624	76	326	393		
N=C(N)SCc1cccc(B(O)O)c1 [compound 864]	868	776	868	209	421	289		
N=C(N)SCc1ccccc1B(O)O [compound 865]	7	26	7	5.4	70	3		
N=C(N)SCc1ccc(B(O)O)cc1 [compound 866]	6	3076	440	6.4	6.4	32		
Br.N=C(N)SCc1cccc(I)c1 [compound 885]							0.6	10
Br.COC(=O)c1cccc(CSC(=N)N)c1 [compound 887]							0.9	5.3
N=C(N)SCc1cccc([N+](=O)[O-])c1 [compound 896]	4	3	4	2	295	2		
CN=C(N)SCc1cccc(B(O)O)c1 [compound 903]	39	27	21	19	38.7	21		
CC(=O)NNC(=N)SCc1cccc(B(O)O)c1 [compound 915]	1	4	2	10.1	2.0	1		
Br.N=C(N)NC(=N)Nc1cc(F)cc(F)c1Br [compound 929]							1.6	0
Br.Cc1ccc(I)cc1NC(=N)NC(=N)N [compound 930]							0.6	0
Br.CC(C)c1ccc(NC(=N)NC(=N)N)c(Br)c1 [compound 931]							0.8	7.7
Br.N=C(N)NC(=N)Nc1ccc(I)cc1 [compound 932]							0.3	0
Cc1cc(CSC(=N)N)cc(B(O)O)c1 [compound 967]	905	785	3	205	1645	312		
N=C(N)SCc1cc(CSC(=N)N)cc(B(O)O)c1 [compound 968]	1862	880	640	59.6	1215	640		
CC(C)(C)OC(=O)N=C(N)N(Cc1cccc(B2OC(C)(C)C(C)(C)O2)c1)C(=O)OC(C)(C)C [compound 970]				80	12			
COc1ccc(CSC(=N)N)cc1B1OC(C)(C)C(C)(C)O1 [compound 973]	167	1210	167	32	1210	121		
CC(SC(=N)N)c1cccc(B2OC(C)(C)C(C)(C)O2)c1 (centres unmarked) [compound 974]	680	934	324	64	6769	324		
N=C(N)SCc1cc(B(O)O)ccc1Oc1ccccc1 [compound 977]	889	583	583	306	333	583		
CC1(C)OB(c2cccc(CNC(=N)N)c2)OC1(C)C [compound 1006]	51	70	37	46	106	27		
CC1(C)OB(c2ccc(N3CCN(c4ccccn4)CC3)c(CSC(=N)N)c2)OC1(C)C [compound 1031]				39.0	15(*)			
CC1(C)OB(c2ccc(Oc3ccccc3)c(CSC(=N)N)c2)OC1(C)C [compound 1055]				291	2768			
CC1(C)OB(c2ccc(Oc3ccc(Oc4ccccc4)cc3)c(CSC(=N)N)c2)OC1(C)C [compound 1056]				626	455			
CC1(C)OB(c2ccc(Oc3cccc(Cl)c3)c(CSC(=N)N)c2)OC1(C)C [compound 1057]				157	572			
COc1cccc(Oc2ccc(B3OC(C)(C)C(C)(C)O3)cc2CSC(=N)N)c1 [compound 1058]				97	666			
CC(C)Cc1ccc(Oc2ccc(B3OC(C)(C)C(C)(C)O3)cc2CSC(=N)N)cc1 [compound 1059]				285	1959			
N#Cc1cccc(Oc2ccc(B(O)O)cc2CSC(=N)N)c1 [compound 1069]				229	4156			
N=C(N)SCc1cc(B(O)O)ccc1Oc1ccc2c(c1)CCCC2 [compound 1070]				346	2174			
N=C(N)SCc1cc(B(O)O)ccc1Oc1ccc(C(=O)c2ccccc2)cc1 [compound 1072]				746	1410			

— patent US20040235792A1, “Serine protease inhibitors compromising a hydrogen-bond acceptor” (priority 2001, published 2004)
